Patent publication US5726162A (priority 1996, dated 1998)
Read-outs that look alike come from different tables or passages of the source.

How the values were obtained:
[1] = system: Thanatephorus cucumeris (Rhizoctonia solani); assay: In vivo test b) Rice Sheath Blight (RSB), 24 hour preapplication protectant, % control; details: read-out: % Control RSB
Procedure: Compounds were tested at 200 ppm as a twenty-four hour preapplication protectant test prior to inoculation.
b) Rice Sheath Blight (RSB)
Thanatephorus cucumeris (Rhizoctonia solani) mycelia were grown for six days in potato dextrose broth in shake culture. Drained mycelial mats were blended with an approximately equal weight of rice flour and five parts water. This slurry was dispensed onto the soil surface of pots containing rice seedlings previously treated with experimental compounds. The plants were placed in a mist chamber at 25°-28° C. for 48 hours. Following two more days at 25° C. and 70-90% relative humidity the plants were evaluated for percent disease control compared to check plants.

[2] = system: Magnaporthe grisea (Pyricularia oryzae); assay: whole plant or invertebrate; type: in vivo, Magnaporthe grisea (Pyricularia oryzae) on M201 rice plants; details: Pyricularia oryzae, 144 h, read-out: % Control RB
fungal inoculum = assay: organism not typed; type: cell-based; details: read-out: % growth inhibition
Candida albicans = assay: Activity against Candida albicans in microtiter plates, % control of growth; type: cell-based
Procedure: The activity against Candida albicans was determined using the following test protocol.
Conidia and mycelium from the Candida albicans culture maintained on potato dextrose agar plates were lightly scraped off into yeast extract-dextrose broth (YDB) so that mostly conidia was used as inoculum. The conidial suspsension was strained through a double layer of cheesecloth to remove mycelial clumps. The inoculum mixture was placed in microtiter plates using a 12-tipped pipet. 175 microliters were placed in each well of the microliter plates and the plates were placed in the refrigerator overnight. There were two replications.
The compounds to be tested were dissolved in 1:1 acetone:methanol and 100 ppm of the compound solution were placed in a well of the prepared microtiter plates.
The microtiter plates were incubated for 7 days at room temperature after addition of the compounds. Percent control was visually estimated using a microtiter plate reading mirror. Readings were made at 1, 2, 3, and/or 7 days after treatment.

fungal mycelium = assay: organism not typed; type: cell-based; details: read-out: % growth inhibition
[3] = 24 h, 1 day after treatment, read-out: % control of growth +1
[4] = 48 h, 2 days after treatment, read-out: % control of growth +2
[5] = 72 h, 3 days after treatment, read-out: % control of growth +3

`CC#CCN1N=C(c2ccc(Cl)cc2)CCC1=O` [Compound 1] was tested, and the pest or weed control at 200 ppm ([1]; 200 ppm, protectant) was 0%, the pest or weed control at 200 ppm [2] was 90% and the inhibition at 5 ppm (fungal inoculum) was 92.7%.

`COc1ccc(C2=NN(CCCO)C(=O)CC2)cc1` [Compound 2] showed a pest or weed control at 200 ppm ([1]; 200 ppm, protectant) of 0%, a pest or weed control at 200 ppm [2] of 0% and an inhibition at 100 ppm (fungal inoculum) of 0%.

With `CCC(O)CN1N=C(c2ccc(Cl)c(Cl)c2)CCC1=O` (centres unmarked) [Compound 3] the pest or weed control at 200 ppm ([1]; 200 ppm, protectant) was 0%, the pest or weed control at 200 ppm [2] was 0% and the inhibition at 100 ppm (fungal inoculum) was 53.6%.

`CCC(O)CN1N=C(c2ccc(Cl)cc2)CCC1=O` (centres unmarked) [Compound 4] gave a pest or weed control at 200 ppm ([1]; 200 ppm, protectant) of 0%, a pest or weed control at 200 ppm [2] of 0% and an inhibition at 100 ppm (fungal inoculum) of 26.7%.

`O=C1CCC(c2ccc(Cl)c(Cl)c2)=NN1CCCO` [Compound 5] gave a pest or weed control at 200 ppm ([1]; 200 ppm, protectant) of 50%, a pest or weed control at 200 ppm [2] of 0% and an inhibition at 100 ppm (fungal inoculum) of 75%.

For `C#CCN1N=C(c2ccc(Cl)cc2)CCC1=O` [Compound 6, 6-(4-chlorophenyl)-2-propargyl-4,5-dihydropyridazinone], the pest or weed control at 200 ppm ([1]; 200 ppm, protectant) was 0%, the pest or weed control at 200 ppm [2] was 0% and the inhibition at 100 ppm (fungal inoculum) was 91.5%.

In the case of `CCCCN1N=C(c2ccc(Cl)cc2)CCC1=O` [Compound 7], the pest or weed control at 200 ppm ([1]; 200 ppm, protectant) is reported as 0%, the pest or weed control at 200 ppm [2] is reported as 0% and the inhibition at 100 ppm (fungal inoculum) is reported as 94.4%.

Molecule `CC=CCN1N=C(c2ccc(Cl)cc2)CCC1=O` [Compound 8] has a pest or weed control at 200 ppm ([1]; 200 ppm, protectant) of 0%, a pest or weed control at 200 ppm [2] of 0% and an inhibition at 100 ppm (fungal inoculum) of 96.2%.

In the case of `CC#CCN1N=C(c2ccccc2)CCC1=O` [Compound 9], the pest or weed control at 200 ppm ([1]; 200 ppm, protectant) is reported as 0%, the pest or weed control at 200 ppm [2] is reported as 0% and the inhibition at 100 ppm (fungal inoculum) is reported as 94.4%.

`O=C1CCC(c2ccc(Cl)cc2)=NN1Cc1ccccc1` [Compound 10] gave a pest or weed control at 200 ppm [1] of 80% and an inhibition at 100 ppm (fungal inoculum) of 100%.

`CC#CCN1N=C(c2ccc(OC)cc2)CCC1=O` [Compound 11, 6-(4-methoxyphenyl)-2-(2'-butynyl)-4,5-dihydropyridazinone] showed a pest or weed control at 200 ppm ([1]; 200 ppm, protectant) of 0%, a pest or weed control at 200 ppm [2] of 0% and an inhibition at 10 ppm (fungal inoculum) of 87.7%.

`CC#CCN1N=C(c2ccc(F)cc2)CCC1=O` [Compound 13] gave a pest or weed control at 200 ppm ([1]; 200 ppm, protectant) of 50%, a pest or weed control at 200 ppm [2] of 50% and an inhibition at 10 ppm (fungal inoculum) of 87%.

`CC(C)(C)N1N=C(c2ccc(Cl)cc2)CCC1=O` [Compound 15, 6-(4-chlorophenyl)-4,5-dihydro-2-t-butylpyridazinone] gave a pest or weed control at 200 ppm ([1]; 200 ppm, protectant) of 50%, a pest or weed control at 200 ppm [2] of 0% and an inhibition at 50 ppm (fungal inoculum) of 37.1%.

Molecule `O=C1CCC(c2ccc(Cl)cc2)=NN1C(=O)c1ccccc1` [Compound 16] has a pest or weed control at 200 ppm ([1]; 200 ppm, protectant) of 50%, a pest or weed control at 200 ppm [2] of 0% and an inhibition at 50 ppm (fungal inoculum) of 12.7%.

For `O=C1CCC(c2ccc(Cl)cc2)=NN1CC#Cc1ccccc1` [Compound 17], the pest or weed control at 200 ppm ([1]; 200 ppm, protectant) was 80%, the pest or weed control at 200 ppm [2] was 0% and the inhibition at 25 ppm (fungal inoculum) was 91.9%.

`CC#CCN1N=C(c2ccc(C)cc2)CCC1=O` [Compound 18] was tested, and the pest or weed control at 200 ppm ([1]; 200 ppm, protectant) was 0%, the pest or weed control at 200 ppm [2] was 0% and the inhibition at 5 ppm (fungal inoculum) was 88.4%.

With `CC(C)C#CCN1N=C(c2ccc(Cl)cc2)CCC1=O` [Compound 34] the inhibition of growth at 100 ppm (Candida albicans; [3]) was 100%, the inhibition of growth at 100 ppm (Candida albicans; [4]) was 100% and the inhibition of growth at 100 ppm (Candida albicans; [5]) was 100%. It also gave a pest or weed control at 200 ppm [2] of 90% and an inhibition at 10 ppm (fungal inoculum) of 100%.

With `C=CC#CCN1N=C(c2ccc(Cl)cc2)CCC1=O` [Compound 56, 6-(4-chlorophenyl)-2-(3'-vinyl-2'-propynyl)-4,5-dihydropyridazinone] the inhibition of growth at 100 ppm (Candida albicans; [3]) was 100%, the inhibition of growth at 100 ppm (Candida albicans; [4]) was 100% and the inhibition of growth at 100 ppm (Candida albicans; [5]) was 100%. It also gave a pest or weed control at 200 ppm [2] of 100% and an inhibition at 1 ppm (fungal inoculum) of 100%.

`O=C1CCC(c2ccc(Cl)cc2)=NN1CC#CCF` [Compound 76, 6-(4-chlorophenyl)-2-(4'-fluoro-2'-butynyl)-4,5-dihydropyridazinone] was tested, and the inhibition at 10 ppm (fungal mycelium) was 100%, the inhibition of growth at 100 ppm (Candida albicans; [3]) was 100% and the inhibition of growth at 100 ppm (Candida albicans; [4]) was 100%. For the same molecule, the inhibition of growth at 100 ppm (Candida albicans; [5]) was 100% and the pest or weed control at 200 ppm [2] was 0%.

`CCC#CCN1N=C(c2ccc(-c3ccccc3)cc2)CCC1=O` [Compound 79] was tested, and the inhibition at 50 ppm (fungal mycelium) was 17%, the pest or weed control at 200 ppm ([1]; 200 ppm, protectant) was 75% and the pest or weed control at 200 ppm [2] was 100%.

`CCC#CCN1N=C(c2ccc(C)cc2)CCC1=O` [Compound 80] gave an inhibition at 2.5 ppm (fungal mycelium) of 100%, a pest or weed control at 200 ppm [1] of 0% and a pest or weed control at 200 ppm [2] of 99%.
